Data published in patent US20250325534A1, “MICROBIOCIDAL TETRAHYDROISOQUINOLINE DERIVATIVES” (SYNGENTA CROP PROTECTION AG, priority 2021, published 2025).

Assays:
Type in all cases: cell-based
Monographella nivalis = Monographella nivalis (Microdochium nivale) / liquid culture (foot rot cereals); settings: 96 h, photometrically 4-5 days after application, read-out: control of Monographella nivalis
Outline: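 Test compound, applied as a DMSO solution, was challenged with fungal spores suspended in potato dextrose broth; after 4-5 days at 24° C, photometric readout gave inhibition of growth.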

[1] = system: Mycosphaerella graminicola; test: Mycosphaerella graminicola (Septoria tritici) / liquid culture (Septoria blotch); settings: Zymoseptoria tritici, 96 h, photometrically 4-5 days after application, read-out: control of Mycosphaerella graminicola
Outline: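 Growth inhibition measured by photometry 4-5 days post application, at 24° C incubation. Test compound supplied as DMSO solution; fungal conidia from cryostorage suspended directly in potato dextrose broth as inoculum.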

Mycosphaerella arachidis = Mycosphaerella arachidis (Cercospora arachidicola) / liquid culture (early leaf spot); settings: 96 h, photometrically 4-5 days after application, read-out: control of Mycosphaerella arachidis
Outline: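 Photometric growth inhibition, read 4-5 days post-application at 24 °C, of Cercospora arachidicola spores suspended in potato dextrose broth and exposed to test compound delivered from DMSO solution.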

Botryotinia fuckeliana = Botryotinia fuckeliana (Botrytis cinerea) / liquid culture (gray mould); settings: 72 h, growth inhibition photometrically 3-4 days after application, read-out: control of Botryotinia fuckeliana
Description: Example B2: Botryotinia Fuckeliana (Botrytis cinerea)/Liquid Culture (Gray Mould) Conidia of the fungus from cryogenic storage are directly mixed into a nutrient broth (Vogels broth). After placing a DMSO solution of test compound into a microtiter plate (96-well format), the nutrient broth containing the fungal spores is added. The test plates are incubated at 24° C. and the inhibition of growth is determined photometrically 3-4 days after application.

Glomerella lagenarium = Glomerella lagenarium (Colletotrichum lagenarium) / liquid culture (anthracnose); settings: Colletotrichum orbiculare, 72 h, photometrically 3-4 days after application, read-out: control of Glomerella lagenarium
Outline: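 Conidia in potato dextrose broth added to test compound delivered as DMSO solution in microtiter plates; incubation at 24° C. Growth inhibition read photometrically 3-4 days after application.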

Measured: inhibition of growth at 20 ppm

Cn1cc(C2CN(C(=O)c3nnc(-c4ccc(F)cc4F)s3)Cc3ccccc32)cn1 (stereo not shown) [Compound P-1, [5-(2,4-difluorophenyl)-1,3,4-thiadiazol-2-yl]-[4-(1-methylpyrazol-4-yl)-3,4-dihydro-1H-isoquinolin-2-yl]methanone]
≥ 80%: all assays above

Cc1c(C2(C)CN(C(=O)c3cc(-c4ccc(F)cc4F)on3)C(C)c3ccccc32)cnn1C (stereo not shown) [Compound P-16, [5-(2,4-difluorophenyl)isoxazol-3-yl]-[4-(1,5-dimethylpyrazol-4-yl)-1,4-dimethyl-1,3-dihydroisoquinolin-2-yl]methanone]
≥ 80%: all assays above

COc1ccc2c(c1)C(c1cnn(C)c1)CN(C(=O)c1cc(-c3ccc(F)cc3F)on1)C2C (stereo not shown) [Compound P-47, [5-(2,4-difluorophenyl)isoxazol-3-yl]-[6-methoxy-1-methyl-4-(1-methylpyrazol-4-yl)-3,4-dihydro-1H-isoquinolin-2-yl]methanone]
≥ 80%: all assays above

Cn1cc(C2CN(C(=O)c3nc(-c4ccccc4)no3)Cc3ccccc32)cn1 (stereo not shown) [Compound P-152, [4-(1-methylpyrazol-4-yl)-3,4-dihydro-1H-isoquinolin-2-yl]-(3-phenyl-1,2,4-oxadiazol-5-yl)methanone]
≥ 80%: all assays above

Cn1cc(C2CN(C(=O)c3cc(-c4ccccc4F)no3)Cc3ccccc32)cn1 (stereo not shown) [Compound P-154, [3-(2-fluorophenyl)isoxazol-5-yl]-[4-(1-methylpyrazol-4-yl)-3,4-dihydro-1H-isoquinolin-2-yl]methanone]
≥ 80%: all assays above

Cn1cc(C2CN(C(=O)c3cc(-c4cccc(F)c4)no3)Cc3ccccc32)cn1 (stereo not shown) [Compound P-159, [3-(3-fluorophenyl)isoxazol-5-yl]-[4-(1-methylpyrazol-4-yl)-3,4-dihydro-1H-isoquinolin-2-yl]methanone]
not listed: Glomerella lagenarium
≥ 80%: all other assays above

Cn1cc(C2CN(C(=O)c3nnc(-c4ccccc4)s3)Cc3ccccc32)cn1 (stereo not shown) [Compound P-162, [4-(1-methylpyrazol-4-yl)-3,4-dihydro-1H-isoquinolin-2-yl]-(5-phenyl-1,3,4-thiadiazol-2-yl)methanone]
≥ 80%: all assays above

Cn1cc(C2CN(C(=O)c3cc(-c4ccc(F)cc4)on3)Cc3ccccc32)cn1 (stereo not shown) [Compound P-192, [5-(4-fluorophenyl)isoxazol-3-yl]-[4-(1-methylpyrazol-4-yl)-3,4-dihydro-1H-isoquinolin-2-yl]methanone]
≥ 80%: [1] | Botryotinia fuckeliana | Glomerella lagenarium
